Measurements: paper PMC6493465 (Oncotarget, 2019)

Columns and labels:
[1] = test system: MCL-1, BCL2L10, survivin and cPARP in MV4-11 cells; experiment: Western blot analysis of anti-apoptotic protein expression, MV4-11; type: cell-based, human; settings: MV4-11, 24-hour treatment; gilteritinib 10 nM, AraC 1000 nM, DNR 6 nM, IDR 1 nM and 2 nM, Aza 1000 nM
Experimental: Cell lysates were prepared in radioimmunoprecipitation assay buffer (Thermo Fisher Scientific Inc., Rockford, IL) supplemented with phosphatase (Thermo Fisher Scientific Inc.) and protease inhibitors (Merck, Billerica, MA), electrophoresed on 4%–15% gels, and subsequently transferred to polyvinylidene difluoride membranes. The membranes were blocked using Blocking One (Nacalai Tesque Inc., Kyoto, Japan) for 1 hour and then incubated overnight with primary antibodies to MCL-1, BCL210, cPARP (all from Cell Signaling Technology, Danvers, MA, USA), survivin (R&D Systems, Inc., Minneapolis, MN), and α-actin (MilliporeSigma, Burlington, MA). The membranes were washed with TBS Tween-20 (TBS-T) buffer and incubated with appropriate horseradish peroxidase-linked secondary antibodies (Cell Signaling Technology Japan K.K.) for 1 hour at room temperature. After washing the membranes in TBS-T buffer, enhanced chemiluminescence Western Blotting Detection Reagent ECL-prime (GE Healthcare, Fairfield, CT) was applied. Signals were detected with a charge-coupled device camera (ImageQuant LAS4000; GE Healthcare); signal intensity was quantified using ImageQuant™ TL software (GE Healthcare).

MV4-11 cells [2] = experiment: Antitumor effects in mice xenografted with MV4-11 cells; type: in vivo, mouse; settings: MV4-11 xenograft; for Regression of Tumor / Inhibition of Tumor Growth: Day 21
Experimental: Four or five-week-old male nude mice (CanN.Cg-Foxn1nu/Crl/Crlj[nu/nu]; Charles River Laboratories Japan, Inc., Kanagawa, Japan) were maintained under specific pathogen-free conditions and received a standard diet and water supply throughout the study. All animal experimental procedures were performed in accordance with the Animal Ethics Committee of Astellas Pharma, Inc. For in vivo experiments, suspensions of MV4-11 and MOLM-13 cells in PBS at a concentration of 1 × 10^8 cells/mL were mixed with an equivalent volume of Matrigel® Basement Membrane Matrix, resulting in a final cell concentration of 5 × 10^7 cells/mL. The cells were subcutaneously injected into the flanks of mice at a concentration of 5 × 10^6 cells/0.1 mL/mouse. After tumor establishment, mice were divided into groups with similar mean tumor volume across groups.
Dosing volumes were 10 mL/kg for oral and intraperitoneal (IP) administration, and 5 or 10 mL/kg for intravenous (IV) administration. Treatment was administered once daily on designated days. The first day of treatment was designated as Day 0 and observation continued until Day 20 or 21 for mice xenografted with MV4-11 cells and Day 16 for mice xenografted with MOLM-13 cells. In mice xenografted with MV4-11 cells for experiments involving triple combination treatment, the control group received oral administration of vehicle (0.5% methylcellulose, Days 0–20), IP administration of vehicle (saline, Days 0–4), and IV administration of vehicle (saline, Days 0–2).
The AraC/DNR group received oral vehicle (0.5% methylcellulose, Days 0–20), IP AraC (50 mg/kg/day, Days 0–4), and IV DNR (2 mg/kg/day, Days 0–2). The AraC/IDR group received vehicle (Days 0–20), IP AraC (50 mg/kg/day, Days 0–4), and IV IDR (0.5 mg/kg/day, Days 0–2). […] For experiments involving Aza, the control group received oral vehicle (0.5% methylcellulose, Days 0–20) and IV vehicle (saline, Days 0–4). The Aza group received oral vehicle (0.5% methylcellulose, Days 0–20) and IV Aza (3 mg/kg/day, Days 0–4). […] For mice that received chemotherapy only, administration schedules for each agent were the same as those described in the triple combination groups.
Mice with established tumors were selected and divided into groups on Day −1 or Day 0, so that the mean tumor volumes were similar across groups. Body weights and tumor volumes assessed on Day −1 were designated as Day 0 values. Body weight and tumor diameter were measured for each experimental group; antitumor activity was expressed as the percent inhibition of tumor growth and the percent of tumor regression (further details are outlined in the Supplementary Materials). […] Complete regression was defined as no palpable or observable tumor. […]
Tumor evaluation 100 × (1 – [mean tumor volume of each group on the last day of observation] / [mean tumor volume of each
Body weight and tumor diameter were measured group on Day 0]) in xenografted nude mice xenografted with MV4-11 cells on the indicated days for each experimental group: 1. Treatments for pharmacokinetic assays […]
and 21. Body weight and tumor assessments obtained on with MV4-11 cells received one of the following Day −1 were designated as Day 0 (baseline) measurements. combination treatments: 1.
Tumor diameter was measured using a caliper and tumor 0.5% methylcellulose); 2. Oral methylcellulose (0.5%) in volume was determined by calculating the volume of an combination with IV IDR (0.5 mg/kg) and IP AraC (50 ellipsoid (ie, Length × Width2 × 0.5). The percent inhibition mg/kg); 3. […]
of tumor growth was calculated using the formula: kg) and IP AraC (50 mg/kg). For combination PK assays […]
on the last day of observation) – (tumor volume of each with MV4-11 received one of the following: […]
of each mouse on the last day of observation) – (tumor methylcellulose (0.5%) plus IV Aza (3 mg/kg); 3. Oral […]
The percent tumor regression was calculated using […]

MV4-11 cells [3] = experiment: Cell cycle analysis; type: cell-based, human; settings: 24 hours, control 59.8%
Experimental: MV4-11 cells were seeded in 12-well plates (AGC Techno Glass Co. Ltd., Shizuoka, Japan) at a concentration of 2 × 10^5 cells/well and cultured overnight.
The cells were subsequently harvested and fixed in ice-cold 70% ethanol and maintained at 4°C. Following fixation, the cells were washed with phosphate-buffered saline (PBS) and were resuspended in Guava® Cell Cycle Reagent (Merck Millipore Corporation, Darmstadt, Germany). Cell cycle distribution was measured using a Guava® PCA microcytometer (Merck Millipore Corporation), and was analyzed in 5000 cells per sample using CytoSoft™ software (Merck Millipore Corporation). The mean percentages of cells in sub-G1, G1, S, and G2/M phases were derived from four independent assays.

MV4-11 cells [4] = experiment: Annexin-V staining (apoptosis), MV4-11; type: cell-based, human; settings: gilteritinib alone 3, 10 and 30 nM, 48 hours, vs vehicle
Experimental: MV4-11 cells were seeded in 12-well plates at a concentration of 2 × 10^5 cells/well and cultured overnight. […] MOLM-13 cells were seeded in 12-well plates at a concentration of 1 × 10^5 cells/well and cultured overnight.
Cells were harvested and incubated with Guava® Nexin Reagent (Merck Millipore Corporation, Billerica, MA). Annexin-V-positive cells were assessed using a Guava® PCA microcytometer (Merck Millipore Corporation); the percentage of annexin-V-positive cells (2000 cells per sample) was analyzed using CytoSoft™ software (Merck Millipore Corporation). Mean percentages of annexin-V-positive cells were derived from three independent experiments.

[5] = Aza experiment: oral gilteritinib 3 mg/kg/day Days 0-20, IV Aza 3 mg/kg/day Days 0-4

SMILES	expression of MCL-1, BCL2L10, and survivin [1]	body weight on Day 21 between control and treatment groups (MV4-11 cells [2])	Regression of Tumor (MV4-11 cells [2]; Aza experiment)	Inhibition of Tumor Growth (MV4-11 cells [2]; [5])	mean proportion of MV4-11 cells in G1 phase (MV4-11 cells [3]; gilteritinib 3 nM)	mean proportion of MV4-11 cells in G1 phase (MV4-11 cells [3]; gilteritinib 10 nM)	proportion of annexin-V-positive cells (MV4-11 cells [4])	Regression of Tumor (MV4-11 cells [2]; AraC/DNR experiment)	Inhibition of Tumor Growth (MV4-11 cells [2]; AraC/DNR experiment: oral gilteritinib 3 mg/kg/day Days 0-20, IP AraC 50 mg/kg/day Days 0-4, IV DNR 2 mg/kg/day Days 0-2)	Regression of Tumor (MV4-11 cells [2]; AraC/IDR experiment)	Inhibition of Tumor Growth (MV4-11 cells [2]; AraC/IDR experiment: oral gilteritinib 3 mg/kg/day Days 0-20, IP AraC 50 mg/kg/day Days 0-4, IV IDR 0.5 mg/kg/day Days 0-2)	mean (±SEM) tumor weight on Day 21 (MV4-11 cells [2]; AraC/DNR experiment, control 1.234±0.150 g)	mean tumor weight on Day 21 (MV4-11 cells [2]; AraC/IDR experiment, control 1.64±0.12 g)
Nc1ncn([C@@H]2O[C@H](CO)[C@@H](O)[C@H]2O)c(=O)n1 [Aza, Azacitidine]	no change	No significant differences	0%	5%	–	–	–	–	–	–	–	–	–
CCc1nc(C(N)=O)c(Nc2ccc(N3CCC(N4CCN(C)CC4)CC3)c(OC)c2)nc1NC1CCOCC1 [Gilteritinib]	inhibited the expression	No significant differences	0%	71%	69.0%	70.7%	significantly increased	0%	78%	0%	85%	0.441 ± 0.076 g	0.53 ± 0.09 g
